US10195185B2, “3-(1H-imidazo[4,5-C]pyridin-2-yl)-1H-pyrazolo[4,3-B]pyridines and therapeutic uses thereof” (Samumed, LLC, priority 2015, dated 2019)

Tests used:
Assay type in all cases: cell-based
[1] = tested on: Primary human fibroblasts derived from IPF patients (LL29 cells) treated with TGF-β1; assay: Inhibition of the fibrotic process: αSMA staining in TGF-β1 treated fibroblasts; settings: Fibroblast, 96 h, LL29 fibroblasts treated with TGF-β1, 4 days
Source text: Representative compounds were screened using primary human fibroblasts (derived from IPF patients) treated with TGF-β1 to determine their ability to inhibit the fibrotic process.
Primary human fibroblasts derived from IPF patients (LL29 cells) [^1Xiaoqiu Liu, et. al., “Fibrotic Lung Fibroblasts Show Blunted Inhibition by cAMP Due to Deficient cAMP Response Element-Binding Protein Phosphorylation”, Journal of Pharmacology and Experimental Therapeutics (2005), 315(2), 678-687; ^2Watts, K. L., et. al., “RhoA signaling modulates cyclin D1 expression in human lung fibroblasts; implications for idiopathic pulmonary fibrosis”, Respiratory Research (2006), 7(1), 88] were obtained from American Type Culture Collection (ATCC) and expanded in F12 medium supplemented with 15% Fetal Bovine Serum and Penicillin/Streptomycin.
Each compound was dissolved in DMSO as a 10 mM stock and used to prepare compound source plates. Serial dilution (1:2, 11-point dose-response curves from 10 μM to 1.87 nM) and compound transfer was performed using the ECHO 550 (Labcyte, Sunnyvale, Calif.) into 384-well clear bottom assay plates (Greiner Bio-One) with appropriate DMSO backfill for a final DMSO concentration of 0.1%. LL29 cells are plated at 1,500 cells/well in 80 μL/well F12 medium supplemented with 1% Fetal Bovine Serum. One hour after addition of the cells, TGF-β1 (Peprotech; 20 ng/mL) was added to the plates to induce fibrosis (ref. 1 and 2 above). Wells treated with TGF-β1 and containing DMSO were used as controls. Cells were incubated at 37° C. and 5% CO2 for 4 days. Following incubation for 4 days, SYTOX green nucleic acid stain (Life Technologies [Thermo Fisher Scientific]) was added to the wells at a final concentration of 1 μM and incubated at room temperature for 30 min. Cells were then fixed using 4% formaldehyde (Electron Microscopy Sciences), washed 3 times with PBS followed by blocking and permeabilization using 3% Bovine Serum Albumin (BSA; Sigma) and 0.3% Triton X-100 (Sigma) in PBS. Cells were then stained with antibody specific to α-smooth muscle actin (αSMA; Abcam) (ref. 1 and 2 above) in 3% Bovine Serum Albumin (BSA; Sigma) and 0.3% Triton X-100 (Sigma) in PBS, and incubated overnight at 4° C. Cells were then washed 3 times with PBS, followed by incubation with Alexa Flor-647 conjugated secondary antibody (Life Technologies [Thermo Fisher Scientific]) and DAPI at room temperature for 1 hour. Cells were then washed 3 times with PBS and plates were sealed for imaging. αSMA staining was imaged by excitation at 630 nm and emission at 665 nm and quantified using the Compartmental Analysis program on the CellInsight CX5 (Thermo Scientific). Dead or apoptotic cells were excluded from analysis based on positive SYTOX green staining. % of total cells positive for αSMA were counted in each well and normalized to the average of 11 wells treated with TGF-β1 on the same plate using Dotmatics' Studies Software. The normalized averages (fold change over untreated) of 3 replicate wells for each compound concentration were used to create dose-responses curves and EC50 values were calculated using non-linear regression curve fit in the Dotmatics' Studies Software. For EC50 of >10 μM, the percent inhibition at 10 μM is provided.

[2] = tested on: Wnt activity (Wnt-responsive human Sp5 promoter, TCF/LEF binding sites) in SW480 colon carcinoma cells; assay: Wnt activity screening assay: Sp5-Luc luciferase reporter gene in SW480 cells; settings: 10-point dose-response from 10 μM, incubated overnight
Source text: The screening assay for Wnt activity is described as follows. Reporter cell lines can be generated by stably transducing cancer cell lines (e.g., colon cancer) or primary cells (e.g., IEC-6 intestinal cells) with a lentiviral construct that includes a Wnt-responsive promoter driving expression of the firefly luciferase gene.
SW480 colon carcinoma cells were transduced with a lentiviral vector expressing luciferase with a human Sp5 promoter consisting of a sequence of eight TCF/LEF binding sites. SW480 cells stably expressing the Sp5-Luc reporter gene and a hygromycin resistance gene were selected by treatment with 150 μg/mL of hygromycin for 7 days. These stably transduced SW480 cells were expanded in cell culture and used for all further screening activities. Each compound was dissolved in DMSO as a 10 mM stock and used to prepare compound source plates. Serial dilution (1:3, 10-point dose-response curves starting from 10 μM) and compound transfer was performed using the ECHO 550 (Labcyte, Sunnyvale, Calif.) into 384-well white solid bottom assay plates (Greiner Bio-One) with appropriate DMSO backfill for a final DMSO concentration of 0.1%. For Sp5-Luc reporter gene assays, the cells were plated at 4,000 cells/well in 384-well plates with medium containing 1% fetal bovine serum and incubated overnight at 37° C. and 5% CO2. Following incubation, 20 μl of BrightGlo luminescence reagent (Promega) was added to each well of the 384-well assay plates. The plates were placed on an orbital shaker for 2 min and then luminescence was quantified using the Envision (Perkin Elmer) plate reader. Readings were normalized to DMSO only treated cells, and normalized activities were utilized for EC50 calculations using the dose-response log (inhibitor) vs. response-variable slope (four parameters) nonlinear regression feature available in GraphPad Prism 5.0 (or Dotmatics). For EC50 of >10 μM, the percent inhibition at 10 μM is provided.

[3] = tested on: IL-6 in human monocyte cell line (THP-1 cells); assay: IL-6 inhibition in LPS-stimulated THP-1 cells (HTRF); settings: IL-6 in LPS-stimulated THP-1 cells, HTRF
Description: Human monocyte cell line (THP-1 cells; Catalog # TIB-202, ATCC, Manassas, Va.) were cultured in Roswell Park Memorial Institute (RPMI) 1640 Medium (Catalog #21870-100, Buffalo, N.Y.) with 1% L-glutamine, 1% HEPES, 1% Sodium Pyruvate, 2% Sodium Bicarbonate supplemented with 100 units/mL penicillin, 50 μg/mL streptomycin, 2-mercaptoethanol (0.05 mM) [basal medium] and 10% fetal bovine serum (Catalog #16140089, Life Technologies, Carlsbad, Calif.) at 37° C. and 5% CO2.
THP-1 cells were cultured in basal media with 1% FBS for 24 hours before the start of the assay. Each compound was dissolved in DMSO as a 10 mM stock and used to prepare compound source plates. Serial dilution (1:3, 10-point dose-response curves starting from 10 μM) and compound transfer was performed using the ECHO 550 (Labcyte, Sunnyvale, Calif.) into 384-well white low volume assay plates (Greiner Bio-One) with appropriate DMSO backfill for a final DMSO concentration of 0.1%. THP-1 cells were plated at 5000 cells/well in the 384-well plates and incubated at 37° C. for 2 h. 500 ng/mL of LPS was added after 2 hours and cells were incubated for another 22 hours at 37° C. Plates were spun in a centrifuge for 1 minute at […] and a mixture of anti-IL6 XL665, and anti-IL6 Cryptate diluted in reconstitution buffer (Cisbio Inc.) was added to each well. Following incubation for 3 hrs at room temperature, Homogeneous Time-Resolved Fluorescence (HTRF) was measured using the Envision (Perkin Elmer) at 665 nm and […]. The ratio of fluorescence at 665 nm to 620 nm was used as a readout for IL6 quantification. All samples were processed in duplicate. Readings were normalized to DMSO treated cells and normalized activities were utilized for EC50 calculations using the dose-response log (inhibitor) vs. response-variable slope (four parameters) nonlinear regression feature available in GraphPad Prism 5.0 (or Dotmatics). For EC50 of >10 μM, the percent inhibition at 10 μM is provided.

SW480 colon cancer cells = assay: Cell viability assay (CellTiter-Blue), four days; settings: Homo sapiens, 96 h, CellTiter-Blue cell viability
Description: Representative compounds were screened using the following assay procedure to assess the effect on cell viability as described below.
Each compound was dissolved in DMSO as a 10 mM stock and used to prepare compound source plates. Serial dilution (1:3, 8-point dose-response curves from 10 μM to 0.0045 μM) and compound transfer was performed using the ECHO 550 (Labcyte, Sunnyvale, Calif.) into 96-well clear bottom, black-walled plates (Corning-Costar).
Approximately 2×10^3 SW480 colon cancer cells were seeded into each well and allowed to incubate in the presence or absence of compound for four days at 37° C./5% CO2. Eight replicates of DMSO-treated cells served as controls and cells treated with compound were performed in duplicate.
After incubation, 20 μL of CellTiter-Blue (Promega) was added to each well allowed to incubate for approximately 3 hours. This reagent was a buffered solution which contains resazurin, metabolically active cells were able to reduce rezarurin (blue) into resorufin (pink) which was highly fluorescent. This measured fluorescence was used as a readout for cell viability.
After incubation, the plates were read at Ex 560 nm Em 590 nm (Cytation 3, BioTek). Dose-response curves were generated and EC50 concentration values were calculated using non-linear regression curve fit in the GraphPad Prism (San Diego, Calif.) or Dotmatics' Studies Software (Bishops Stortford, UK). For EC50 of >10 μM, the percent inhibition at 10 μM is provided.

| SMILES | EC50 [2] | EC50 [3] | EC50 (SW480 colon cancer cells) | EC50 [1] |
| --- | --- | --- | --- | --- |
| CN(C)CCNc1cc(F)cc(-c2nccc3[nH]c(-c4n[nH]c5ccc(-c6cncc(CNCC7CCCC7)c6)nc45)nc23)c1 [Compound 473, N^1-(3-(2-(5-(5-(((Cyclopentylmethyl)amino)methyl)pyridin-3-yl)-1H-pyrazolo[4,3-b]pyridin-3-yl)-1H-imidazo[4,5-c]pyridin-4-yl)-5-fluorophenyl)-N^2,N^2-dimethylethane-1,2-diamine] | 4.41 µM | 4.66 µM | 8.37 µM | 5.06 µM |
| c1csc(-c2nccc3[nH]c(-c4n[nH]c5ccc(-c6ccncc6)nc45)nc23)c1 [Compound 354, 5-(Pyridin-4-yl)-3-(4-(thiophen-2-yl)-1H-imidazo[4,5-c]pyridin-2-yl)-1H-pyrazolo[4,3-b]pyridine] | 1.07 µM | 9.11 µM | 1.05 µM | 0.792 µM |
| c1ccc(-c2ccc3[nH]nc(-c4nc5cnccc5[nH]4)c3n2)nc1 [Compound 280, 3-(1H-Imidazo[4,5-c]pyridin-2-yl)-5-(pyridin-2-yl)-1H-pyrazolo[4,3-b]pyridine] | 1.32 µM | 1.9 µM | 5.71 µM | 7.23 µM |
| C1=C(c2ccc3[nH]nc(-c4nc5c(-c6ccc7c(c6)OCO7)nccc5[nH]4)c3n2)CCNC1 [Compound 1109, 3-(4-(Benzo[d][1,3]dioxol-5-yl)-1H-imidazo[4,5-c]pyridin-2-yl)-5-(1,2,3,6-tetrahydropyridin-4-yl)-1H-pyrazolo[4,3-b]pyridine] | 0.652 µM | 0.154 µM | 3.41 µM | 3.85 µM |
| FC1(F)CCN(Cc2cncc(-c3ccc4[nH]nc(-c5nc6c(N7CCCCC7)nccc6[nH]5)c4n3)c2)C1 [Compound 194, 5-(5-((3,3-Difluoropyrrolidin-1-yl)methyl)pyridin-3-yl)-3-(4-(piperidin-1-yl)-1H-imidazo[4,5-c]pyridin-2-yl)-1H-pyrazolo[4,3-b]pyridine] | 3.39 µM | 2.49 µM | 1.96 µM | 2.24 µM |

More lines, main results first:

| EC50 [2] | EC50 [3] | EC50 (SW480 colon cancer cells) | SMILES | EC50 [1] |
| --- | --- | --- | --- | --- |
| 0.036 µM | 0.437 µM | 0.688 µM | Cc1ncc(-c2ccc3[nH]nc(-c4nc5c(-c6cccc(F)c6)nccc5[nH]4)c3n2)n1C [Compound 509, 5-(1,2-Dimethyl-1H-imidazol-5-yl)-3-(4-(3-fluorophenyl)-1H-imidazo[4,5-c]pyridin-2-yl)-1H-pyrazolo[4,3-b]pyridine] | 0.202 µM |
| 1.88 µM | 3.91 µM | 6.55 µM | Cc1ncc(-c2ccc3[nH]nc(-c4nc5c(-c6cc(F)cc(NCCN(C)C)c6)nccc5[nH]4)c3n2)n1C [Compound 781, N^1-(3-(2-(5-(1,2-Dimethyl-1H-imidazol-5-yl)-1H-pyrazolo[4,3-b]pyridin-3-yl)-1H-imidazo[4,5-c]pyridin-4-yl)-5-fluorophenyl)-N^2,N^2-dimethylethane-1,2-diamine] | 3.1 µM |
| 3.85 µM | 1.49 µM | 3.13 µM | CN1CCN(c2nccc3[nH]c(-c4n[nH]c5ccc(-c6cncc(OCc7ccccc7)c6)nc45)nc23)CC1 [Compound 646, 5-(5-(Benzyloxy)pyridin-3-yl)-3-(4-(4-methylpiperazin-1-yl)-1H-imidazo[4,5-c]pyridin-2-yl)-1H-pyrazolo[4,3-b]pyridine] | 3.98 µM |
| 3.23 µM | 3.81 µM | 3.99 µM | COc1cncc(-c2ccc3[nH]nc(-c4nc5c(N6CCCCC6)nccc5[nH]4)c3n2)c1 [Compound 612, 5-(5-Methoxypyridin-3-yl)-3-(4-(piperidin-1-yl)-1H-imidazo[4,5-c]pyridin-2-yl)-1H-pyrazolo[4,3-b]pyridine] | 2.92 µM |
| 2.67 µM | 3.42 µM | 2.42 µM | CN1CCN(c2nccc3[nH]c(-c4n[nH]c5ccc(-c6cncc(OC7CCCCC7)c6)nc45)nc23)CC1 [Compound 639, 5-(5-(Cyclohexyloxy)pyridin-3-yl)-3-(4-(4-methylpiperazin-1-yl)-1H-imidazo[4,5-c]pyridin-2-yl)-1H-pyrazolo[4,3-b]pyridine] | 2.61 µM |
